Where “and” joins values, the source holds several entries; their conditions need not be identical. Equal entries are not always repeated.
Legend:
bovine P450 11A1 = system: bovine P450 11A1; parameters: method as in PMID 217878; conditions: equilibrium dialysis, bovine P450 11A1 ref 26; cited from earlier work
human P450 11A1 = target: T1, human P450 11A1 (Homo sapiens, UniProt P05108); assay: Steady-state conversion of sterols to pregnenolone by reconstituted P450 11A1 (UPLC-MS of dansyl hydrazone); format: biochemical; parameters: M A S T R S P R P F N E I P S P G D N; Met-Ala (N-terminal start residues in place of the transit peptide and Ile40) (N); made in house; host or cells: E. coli (P450 11A1 in C41(DE3); Adx and AdR in E. coli); conditions: for Km / kcat / kcat (conversion of sterol to pregnenolone): 0.25 μM P450, 0.5 μM AdR, 10 μM Adx, 37 °C; for rate of pregnenolone formation: duplicate, raw data of Fig. 5
T1 sequence (P05108 41-521 limits assumed): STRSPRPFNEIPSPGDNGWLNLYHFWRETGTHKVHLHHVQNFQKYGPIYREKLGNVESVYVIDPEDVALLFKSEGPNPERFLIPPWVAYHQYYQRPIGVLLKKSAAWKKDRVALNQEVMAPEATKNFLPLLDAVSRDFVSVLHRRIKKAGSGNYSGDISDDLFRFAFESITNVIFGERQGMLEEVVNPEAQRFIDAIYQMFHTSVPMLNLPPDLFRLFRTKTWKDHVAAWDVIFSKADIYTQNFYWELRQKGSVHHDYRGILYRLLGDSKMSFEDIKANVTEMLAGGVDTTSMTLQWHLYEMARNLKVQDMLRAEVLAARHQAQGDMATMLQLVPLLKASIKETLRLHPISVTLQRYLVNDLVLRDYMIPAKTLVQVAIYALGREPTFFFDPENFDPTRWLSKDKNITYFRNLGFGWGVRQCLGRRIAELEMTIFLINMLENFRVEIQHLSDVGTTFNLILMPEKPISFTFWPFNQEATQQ
T1 sequence (P00257 59-186 partner): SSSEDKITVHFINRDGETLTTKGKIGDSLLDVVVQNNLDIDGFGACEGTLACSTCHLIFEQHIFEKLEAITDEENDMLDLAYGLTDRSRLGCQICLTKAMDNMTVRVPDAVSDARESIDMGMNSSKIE
Protocol: Accordingly, all steady-state assays were done, unless otherwise noted, with a P450 11A1:Adx:AdR molar ratio of 1:40:2 (Fig. 2, that is, 0.25 μM P450, 10 μM Adx, and 0.5 μM AdR), in the absence of added lipid or detergent, and with the addition of sterol substrates in HPCD (stock 45% w/v).
As mentioned in the Introduction, many types of assays have been used to monitor the steady-state conversion of cholesterol to pregnenolone ([12], [14], [15], [16], [17], [18], [19], [20], [21]). A reliable and sensitive method was required that could be used for presteady-state reactions and was not reliant on the presence of isotope in cholesterol, in that, we also worked with 22R-OH cholesterol and 20R,22R-(OH)2 cholesterol as substrates. We utilized a method based on our work with P450 17A1 ([41], [42]), in which we derivatized the product pregnenolone as its dansyl hydrazone and separated it by ultra-performance liquid chromatography (UPLC) with detection by positive ion electrospray mass spectrometry (MS). The steroid dehydroepiandosterone (DHEA) was used an internal standard.
Reactions were performed by reconstituting P450 (0.25 μM), AdR (0.5 μM), and Adx (10 μM) on ice for 10 min prior to dilution in potassium Hepes buffer (50 mM, pH 7.4) and H2O and the addition of substrate (sterol, in HPCD (45% w/v)). Sterol dilutions were performed in HPCD to ensure that the HPCD composition was equal throughout all incubations (final 4.5% w/v). The reaction mixture was split between vials (425 μl in each), and reactions were preincubated (37 °C, 5 min) prior to initiation (75 μl) with an NADPH-generating system (0.5 mM NADP^+, 10 mM glucose 6-phosphate, and 2 μg ml^−1 glucose 6-phosphate dehydrogenase) ([61]). Reactions (5 min) were terminated by extraction into CH2Cl2 (2 ml) and transferred to an ice bath. After the experiment was complete, the quenched reactions were subjected to centrifugation (10^3g, 5 min, 23 °C) to separate layers, the organic (bottom) layer of each sample was removed (1.6 ml) to fresh glass vials, and the samples were brought to dryness under a stream of nitrogen.
Steroid extracts were subsequently derivatized with dansylhydrazine and analyzed as described previously ([42]). Briefly, the dried residue was resuspended (200 μl) in C2H5OH (fortified with 0.1% v/v CF3CO2H, as the derivatization reaction is H^+-catalyzed) and mixed with a vortex device. Samples were transferred to 1.5 ml amber glass vials, solutions of dansylhydrazine (10 mM) and DHEA, 10 μM, as internal standard) were added, and vials were capped, mixed with a vortex device, and incubated in the dark overnight (∼16 h, 23 °C). The derivatization reaction was quenched with acetone […], briefly incubated in the dark (∼30 min, 23 °C), and was then neutralized with base (250 μl of 0.5 M NaOH) and extracted into CH2Cl2 (1 ml). The samples were mixed with a vortex device and the organic (bottom) layer was removed (0.8 ml) to clean amber vials. Solvent was again removed under nitrogen, and the dried residue was dissolved in a mobile phase (100 μl) of 0.1% CF3CO2H in aqueous CH3CN (50%, v/v) for analysis.
Samples were injected (10 μl, held at 25 °C) on a 2.1 mm × 50 mm (1.7 μm) Acquity BEH octadecylsilane (C18) column (held at 40 °C) using a Waters Acquity UPLC with a flow rate of 0.2 ml min^−1 and a gradient mobile phase of (A) 0.1% aqueous HCO2H and (B) CH3CN as follows (all %B, v/v): 0 min, 40%; 0.5 min, 40%; 8 min, 100%; 8.5 min, 95%; 9 min, 100%; 9.1 min, 40%; and 10 min, 40%.

CC(C)CC[C@@H](O)[C@](C)(O)[C@H]1CC[C@H]2[C@@H]3CC=C4C[C@@H](O)CC[C@]4(C)[C@H]3CC[C@]12C [20R,22R-(OH)2 Chol, (20R,22R)-Cholest-5-ene-3β,20,22-triol]
Kd (bovine P450 11A1): 0.081 µM
Km (human P450 11A1): 36 ± 7 µM
kcat (human P450 11A1): 0.233 ± 0.017 s⁻¹
kcat (conversion of sterol to pregnenolone) (human P450 11A1): 0.23 ± 0.02 s⁻¹
kcat and kcat/Km relative to starting substrate cholesterol (greater) (human P450 11A1; steady state): ~2 fold
rate of pregnenolone formation (human P450 11A1; substrate 5 µM, listed as 20R,22R-(OH)2 Cholesterol): 2.46 min⁻¹ and 2.24 min⁻¹
rate of pregnenolone formation (human P450 11A1; substrate 7.5 µM, listed as 20R,22R-(OH)2 Cholesterol): 2.57 min⁻¹ and 2.85 min⁻¹
rate of pregnenolone formation (human P450 11A1; substrate 15 µM, listed as 20R,22R-(OH)2 Cholesterol): 3.83 min⁻¹ and 4.18 min⁻¹
rate of pregnenolone formation (human P450 11A1; substrate 20 µM, listed as 20R,22R-(OH)2 Cholesterol): 4.26 min⁻¹ and 5.83 min⁻¹
rate of pregnenolone formation (human P450 11A1; substrate 30 µM, listed as 20R,22R-(OH)2 Cholesterol): 5.47 min⁻¹ and 6.23 min⁻¹
rate of pregnenolone formation (human P450 11A1; substrate 40 µM, listed as 20R,22R-(OH)2 Cholesterol): 7.20 min⁻¹ and 6.21 min⁻¹
rate of pregnenolone formation (human P450 11A1; substrate 50 µM, listed as 20R,22R-(OH)2 Cholesterol): 6.51 min⁻¹ and 8.53 min⁻¹
rate of pregnenolone formation (human P450 11A1; substrate 75 µM, listed as 20R,22R-(OH)2 Cholesterol): 7.45 min⁻¹ and 10.26 min⁻¹
rate of pregnenolone formation (human P450 11A1; substrate 100 µM, listed as 20R,22R-(OH)2 Cholesterol): 12.01 min⁻¹ and 10.27 min⁻¹
rate of pregnenolone formation (human P450 11A1; substrate 150 µM, listed as 20R,22R-(OH)2 Cholesterol): 9.70 min⁻¹ and 11.61 min⁻¹

CC(C)CC[C@H](O)[C@](C)(O)[C@H]1CC[C@H]2[C@@H]3CC=C4C[C@@H](O)CC[C@]4(C)[C@H]3CC[C@]12C [20R,22S-(OH)2 Chol, (20R,22S)-Cholest-5-ene 3β,20,22-triol]
Km (human P450 11A1): 15 ± 2 µM
kcat (human P450 11A1): 0.0833 ± 0.0033 s⁻¹
kcat (conversion of sterol to pregnenolone) (human P450 11A1): 0.083 ± 0.003 s⁻¹
kcat lower than native diol 20R,22R-(OH)2 cholesterol (human P450 11A1; steady state): ~3 fold
rate of pregnenolone formation (human P450 11A1; substrate 7.5 µM, listed as 20R,22S-(OH)2 Cholesterol): 2.07 min⁻¹ and 1.68 min⁻¹
rate of pregnenolone formation (human P450 11A1; substrate 15 µM, listed as 20R,22S-(OH)2 Cholesterol): 1.97 min⁻¹ and 1.99 min⁻¹
rate of pregnenolone formation (human P450 11A1; substrate 20 µM, listed as 20R,22S-(OH)2 Cholesterol): 2.93 min⁻¹ and 2.88 min⁻¹
rate of pregnenolone formation (human P450 11A1; substrate 30 µM, listed as 20R,22S-(OH)2 Cholesterol): 3.59 min⁻¹ and 3.11 min⁻¹
rate of pregnenolone formation (human P450 11A1; substrate 40 µM, listed as 20R,22S-(OH)2 Cholesterol): 3.90 min⁻¹ and 4.10 min⁻¹
rate of pregnenolone formation (human P450 11A1; substrate 50 µM, listed as 20R,22S-(OH)2 Cholesterol): 3.70 min⁻¹ and 3.57 min⁻¹
rate of pregnenolone formation (human P450 11A1; substrate 75 µM, listed as 20R,22S-(OH)2 Cholesterol): 4.16 min⁻¹ and 4.38 min⁻¹
rate of pregnenolone formation (human P450 11A1; substrate 100 µM, listed as 20R,22S-(OH)2 Cholesterol): 4.14 min⁻¹ and 4.09 min⁻¹
rate of pregnenolone formation (human P450 11A1; substrate 150 µM, listed as 20R,22S-(OH)2 Cholesterol): 4.64 min⁻¹ and 4.37 min⁻¹

CC(C)CC[C@@H](O)[C@@H](C)[C@H]1CC[C@H]2[C@@H]3CC=C4C[C@@H](O)CC[C@]4(C)[C@H]3CC[C@]12C [22R-OH Chol, 22R-hydroxycholesterol]
Kd (bovine P450 11A1): 0.0049 µM
Km (human P450 11A1): 29 ± 3 µM
kcat (human P450 11A1): 0.152 ± 0.005 s⁻¹
kcat (conversion of sterol to pregnenolone) (human P450 11A1): 0.15 ± 0.01 s⁻¹
rate of pregnenolone formation (human P450 11A1; substrate 2.5 µM, listed as 22R-OH Cholesterol): 1.34 min⁻¹ and 1.02 min⁻¹
rate of pregnenolone formation (human P450 11A1; substrate 5 µM, listed as 22R-OH Cholesterol): 1.68 min⁻¹ and 1.48 min⁻¹
rate of pregnenolone formation (human P450 11A1; substrate 7.5 µM, listed as 22R-OH Cholesterol): 1.94 min⁻¹ and 2.15 min⁻¹
rate of pregnenolone formation (human P450 11A1; substrate 15 µM, listed as 22R-OH Cholesterol): 3.15 min⁻¹ and 3.07 min⁻¹
rate of pregnenolone formation (human P450 11A1; substrate 20 µM, listed as 22R-OH Cholesterol): 3.29 min⁻¹ and 3.38 min⁻¹
rate of pregnenolone formation (human P450 11A1; substrate 30 µM, listed as 22R-OH Cholesterol): 4.66 min⁻¹ and 5.17 min⁻¹
rate of pregnenolone formation (human P450 11A1; substrate 40 µM): 5.08 min⁻¹
rate of pregnenolone formation (human P450 11A1; substrate 50 µM, listed as 22R-OH Cholesterol): 5.23 min⁻¹ and 5.80 min⁻¹
rate of pregnenolone formation (human P450 11A1; substrate 75 µM, listed as 22R-OH Cholesterol): 6.76 min⁻¹ and 6.27 min⁻¹
rate of pregnenolone formation (human P450 11A1; substrate 100 µM, listed as 22R-OH Cholesterol): 7.41 min⁻¹ and 6.71 min⁻¹
rate of pregnenolone formation (human P450 11A1; substrate 150 µM, listed as 22R-OH Cholesterol): 7.68 min⁻¹ and 8.05 min⁻¹

CC(C)CCC[C@@H](C)[C@H]1CC[C@H]2[C@@H]3CC=C4C[C@@H](O)CC[C@]4(C)[C@H]3CC[C@]12C [Cholesterol]
Km (human P450 11A1): 38 ± 6 µM
kcat (human P450 11A1): 0.115 ± 0.0083 s⁻¹
kcat (conversion of sterol to pregnenolone) (human P450 11A1): 0.12 ± 0.01 s⁻¹
kcat (conversion of sterol to pregnenolone) (human P450 11A1; listed as cholesterol): 0.12 s⁻¹
kcat for conversion to pregnenolone (human P450 11A1; 40-fold excess Adx): 6.9 nmol product formed min^−1 (nmol P450)^−1
rate of pregnenolone formation (human P450 11A1; substrate 7.5 µM): 1.32 min⁻¹ and 1.18 min⁻¹
rate of pregnenolone formation (human P450 11A1; substrate 15 µM): 1.88 min⁻¹ and 1.72 min⁻¹
rate of pregnenolone formation (human P450 11A1; substrate 20 µM): 2.38 min⁻¹ and 2.20 min⁻¹
rate of pregnenolone formation (human P450 11A1; substrate 30 µM): 2.47 min⁻¹ and 2.46 min⁻¹
rate of pregnenolone formation (human P450 11A1; substrate 40 µM): 3.96 min⁻¹ and 3.88 min⁻¹
rate of pregnenolone formation (human P450 11A1; substrate 50 µM): 4.06 min⁻¹ and 4.00 min⁻¹
rate of pregnenolone formation (human P450 11A1; substrate 75 µM): 4.99 min⁻¹ and 4.93 min⁻¹
rate of pregnenolone formation (human P450 11A1; substrate 100 µM): 5.93 min⁻¹ and 4.92 min⁻¹
rate of pregnenolone formation (human P450 11A1; substrate 150 µM): 4.83 min⁻¹ and 5.08 min⁻¹

— PMC10716780, “The multistep oxidation of cholesterol to pregnenolone by human cytochrome P450 11A1 is highly processive” (The Journal of Biological Chemistry, 2023)
